Measurements: patent US20100029509A1, “NOVEL METHODS” (NATURAL ENVIRONMENT RESEARCH COUNCIL, priority 2006, published 2010)

What was measured:
[1] = test system: xylR/Pu regulation system (Pu promoter activity); experiment: Induction of Pu promoter (relative bioluminescence, luxCDABE reporter) in Acinetobacter ADP1_pu_lux_xylR; type: cell-based, Acinetobacter baylyi ADP1; settings: for Induction of Pu promoter: ADP1_pu_lux_xylR, inducer 100 μM in LB, following 30 hrs incubation; for Induction of Pu promoter activity: strain ADPWH_Pu_lux_xylR, bioluminescence from lux genes
Procedure: Pu promoter activity was monitored by measuring relative bioluminescence (bioluminescence divided by OD600). For each measurement, at each time point 100 μl samples were analyzed in triplicate in a well of a black, clear-bottom 96-well microplate (Fisher Scientific). At OD600 and Bioluminescence were measured using a Synergy HT Multi-Detection Microplate Reader (Bio-Tek™).
A single colony of Acinetobacter sp. ADP_pu_lux_xylR was separately inoculated into 5 ml LB medium in a 30-ml glass universal tube. Toluene, o-, m-, p-xylenes, phenol, benzene, naphthalene, 2-, 3-, or 4-hydroxybenzoic, benzoate or catechol was added into LB (100 μM) to assay induction of Pu. Samples were incubated at 20, 28, 30, 34 or 37° C. with shaking at 150 rpm. Samples were repeatedly loaded on black 96-well microplate for bioluminescence and OD600 measurement for 30 hours of incubation.

[2] = test system: salA promoter operably linked to the lux genes; settings: LB + 6 μg/ml tetracycline + 2 mM salicylate, FIG. 11
[3] = test system: Pu promoter activity; experiment: Catabolic repression of Pu activity in ADP1_pu_lux_xylR grown in minimal medium; type: cell-based, Acinetobacter baylyi ADP1
Procedure: Pu promoter activity was monitored by measuring relative bioluminescence (bioluminescence divided by OD600). For each measurement, at each time point 100 μl samples were analyzed in triplicate in a well of a black, clear-bottom 96-well microplate (Fisher Scientific). At OD600 and Bioluminescence were measured using a Synergy HT Multi-Detection Microplate Reader (Bio-Tek™). To examine the effect of catabolic repression Acinetobacter sp. ADP1_pu_lux_xylR was inoculated into 5 ml MM supplemented with 50 mM glucose or succinate as a sole carbon source in a 30-ml glass universal tube. […] The bacterial samples were incubated at 28° C. shaker with shaking at 150 rpm. […] For each treatment, three replicates were carried out. Samples were taken and measured for bioluminescence and OD600 every 30 min.

[4] = test system: xylR/Pu regulation system (Pu promoter activity); experiment: Induction of Pu promoter (relative bioluminescence, luxCDABE reporter) in Acinetobacter ADP1_pu_lux_xylR; type: cell-based, Acinetobacter baylyi ADP1; settings: ADP1_Pu_lux_xylR on LB agar with 10 mM glucose, FIG. 1B; uninduced cells remained dark

Compound	Induction of Pu promoter [1]	further results
c1ccccc1 [benzene]	cannot be induced	–
Oc1ccccc1O [catechol]	cannot be induced	–
O=C(O)c1ccccc1O [2-hydroxybenzoic (salicylic acid), salicylic acid]	cannot be induced	–
O=C(O)c1ccccc1O [salicylate]	–	Activation by salicylate, Transformant B (negative) [2]: not activated
c1ccc2ccccc2c1 [naphthalene]	cannot be induced	–
Cc1ccccc1 [toluene]	–	Induction of Pu promoter activity [1]: can be induced
O=C(O)c1ccc(O)cc1 [4-hydroxybenzoic]	cannot be induced	–
6-phosphogluconic acid trisodium salt [6-phosphogluconate, reference compound]	–	Effect on Pu activity of added candidate repression signal molecule ([3]; added to MM-glucose at 0.1-300 μM after maximal induction by m-xylene, data not shown): did not affect Pu activity
Oc1ccccc1 [phenol]	cannot be induced	–
O=C(O)c1cccc(O)c1 [3-hyroxybenzoic]	cannot be induced	–
Cc1ccc(C)cc1 [p-xylene]	–	Induction of Pu promoter activity [1]: can be induced
O=C(O)CCC(=O)O [succniate, succinate]	–	Repression of Pu activity by sole carbon source ([3]; minimal medium with 50 mM carbon source, toluene, m-, p- or o-xylene 500 μM as inducers, 28° C., FIG. 3A): did
xylene	–	Bioluminescence on agar medium when induced by vapors [4]: strong bioluminescence
O=C(O)c1ccccc1 [benzoate]	cannot be induced	–
Cc1cccc(C)c1 [m-xylene]	–	Induction of Pu promoter activity [1]: can be induced
Cc1ccccc1C [o-xylene]	–	Induction of Pu promoter activity [1]: can be induced
